Results taken from ChEMBL document CHEMBL4346719, “Discovery of novel acylhydrazone neuraminidase inhibitors” (Eur J Med Chem, 2019).

Columns and labels:
[1] = molecular target: Neuraminidase (Influenza A virus, UniProt B4URF0)
[2] = Inhibition of influenza virus A/WSN/1933 (H1N1) neuraminidase using MUNANA as substrate preincubated for 10 mins followed by substrate addition and measured for 15 mins by fluorescence assay; parameters: species or system Influenza A virus ([…])

Chain of Neuraminidase (B4URF0 whole entry): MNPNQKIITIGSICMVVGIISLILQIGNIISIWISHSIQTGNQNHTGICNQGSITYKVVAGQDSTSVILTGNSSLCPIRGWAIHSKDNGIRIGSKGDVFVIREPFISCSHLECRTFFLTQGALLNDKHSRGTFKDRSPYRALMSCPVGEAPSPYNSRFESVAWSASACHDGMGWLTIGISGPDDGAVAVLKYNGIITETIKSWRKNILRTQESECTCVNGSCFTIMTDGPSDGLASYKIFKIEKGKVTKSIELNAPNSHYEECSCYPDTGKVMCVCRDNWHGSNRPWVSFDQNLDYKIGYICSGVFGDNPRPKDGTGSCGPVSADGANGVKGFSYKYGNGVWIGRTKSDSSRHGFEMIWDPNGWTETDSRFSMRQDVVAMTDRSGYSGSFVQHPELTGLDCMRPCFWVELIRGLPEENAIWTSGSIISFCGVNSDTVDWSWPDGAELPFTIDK

Row | Structure (SMILES) | IC50 [1] | IC50 [2]
1 | O=C(NCCCN1CCOCC1)C(=O)N/N=C/c1ccccc1O | 6.48 µM | –
2 | CC(=O)N[C@H]1[C@H]([C@H](O)[C@H](O)CO)OC(P(=O)(O)O)=C[C@@H]1NC(=N)N | – | 0.0006 µM
3 | COc1cc(/C=N/NC(=O)C(=O)NCCCN2CCOCC2)ccc1O | 4.67 µM | –
4 | O=C(NCCCN1CCOCC1)C(=O)N/N=C/c1ccc(O)c([N+](=O)[O-])c1 | 4.37 µM | –
5 | COc1ccccc1/C=N/NC(=O)C(=O)NCCCN1CCOCC1 | 7.1 µM | –
6 | COc1cc(/C=N/NC(=O)C(=O)NCCCN2CCOCC2)cc(OC)c1OC | 2.61 µM | –
7 | COc1ccc(/C=N/NC(=O)C(=O)NCCCN2CCOCC2)cc1OC | 2.37 µM | –
8 | COc1cc(/C=N/NC(=O)C(=O)NCCCN2CCOCC2)cc(OC)c1O | 3.15 µM | –
